In ChEMBL document CHEMBL4219144, “Novel 6-aryl substituted 4-pyrrolidineaminoquinazoline derivatives as potent phosphoinositide 3-kinase delta (PI3Kδ) inhibitors” (Bioorg Med Chem, 2018):

How the values were obtained:
[1] = target: T1, Phosphatidylinositol 4,5-bisphosphate 3-kinase catalytic subunit delta isoform (Homo sapiens) (UniProt O00329); test: Inhibition of PI3K p110delta (unknown origin) at 100 nM using lipid substrate after 40 mins by kinase-Glo assay relative to control
T1 sequence (whole entry): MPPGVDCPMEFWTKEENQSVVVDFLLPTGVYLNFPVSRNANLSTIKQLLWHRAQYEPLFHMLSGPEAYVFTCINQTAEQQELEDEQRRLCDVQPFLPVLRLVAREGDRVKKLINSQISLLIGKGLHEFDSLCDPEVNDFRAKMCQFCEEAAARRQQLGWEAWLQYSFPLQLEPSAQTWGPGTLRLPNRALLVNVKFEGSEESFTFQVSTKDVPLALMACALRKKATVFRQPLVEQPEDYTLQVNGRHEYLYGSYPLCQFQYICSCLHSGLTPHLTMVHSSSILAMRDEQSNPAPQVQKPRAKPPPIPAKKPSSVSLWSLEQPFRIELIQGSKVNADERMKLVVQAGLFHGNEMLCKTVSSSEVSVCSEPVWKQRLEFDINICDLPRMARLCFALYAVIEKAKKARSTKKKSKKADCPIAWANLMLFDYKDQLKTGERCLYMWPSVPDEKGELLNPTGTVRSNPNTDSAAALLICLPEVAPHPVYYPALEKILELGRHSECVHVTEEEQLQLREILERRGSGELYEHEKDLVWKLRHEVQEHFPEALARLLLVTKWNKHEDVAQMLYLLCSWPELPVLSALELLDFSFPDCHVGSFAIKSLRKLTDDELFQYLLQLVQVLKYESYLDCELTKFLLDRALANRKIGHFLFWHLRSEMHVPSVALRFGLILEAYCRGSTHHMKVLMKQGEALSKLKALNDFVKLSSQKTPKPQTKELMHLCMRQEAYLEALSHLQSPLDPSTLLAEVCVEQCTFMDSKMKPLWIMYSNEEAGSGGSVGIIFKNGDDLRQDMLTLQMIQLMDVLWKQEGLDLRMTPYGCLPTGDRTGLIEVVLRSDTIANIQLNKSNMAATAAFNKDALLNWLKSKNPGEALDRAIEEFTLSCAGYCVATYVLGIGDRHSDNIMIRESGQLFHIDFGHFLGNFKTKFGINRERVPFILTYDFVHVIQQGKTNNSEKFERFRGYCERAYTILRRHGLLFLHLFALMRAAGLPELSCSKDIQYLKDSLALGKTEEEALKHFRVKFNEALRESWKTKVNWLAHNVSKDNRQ

[2] = target: T2, Phosphatidylinositol 4,5-bisphosphate 3-kinase catalytic subunit delta isoform (Homo sapiens, UniProt O00329); test: Inhibition of PI3K p110delta (unknown origin) using lipid substrate after 40 mins by kinase-Glo assay
T2 sequence (O00329 whole entry): T1 sequence (whole entry)

[3] = target: T2, Phosphatidylinositol 4,5-bisphosphate 3-kinase catalytic subunit delta isoform; test: Inhibition of PI3Kdelta (unknown origin)
[4] = target: Phosphatidylinositol 4,5-bisphosphate 3-kinase catalytic subunit alpha isoform (Homo sapiens, UniProt P42336); test: Inhibition of PI3K p110alpha (unknown origin) using lipid substrate after 40 mins by kinase-Glo assay
Sequence of Phosphatidylinositol 4,5-bisphosphate 3-kinase catalytic subunit alpha isoform (P42336 whole entry, canonical isoform): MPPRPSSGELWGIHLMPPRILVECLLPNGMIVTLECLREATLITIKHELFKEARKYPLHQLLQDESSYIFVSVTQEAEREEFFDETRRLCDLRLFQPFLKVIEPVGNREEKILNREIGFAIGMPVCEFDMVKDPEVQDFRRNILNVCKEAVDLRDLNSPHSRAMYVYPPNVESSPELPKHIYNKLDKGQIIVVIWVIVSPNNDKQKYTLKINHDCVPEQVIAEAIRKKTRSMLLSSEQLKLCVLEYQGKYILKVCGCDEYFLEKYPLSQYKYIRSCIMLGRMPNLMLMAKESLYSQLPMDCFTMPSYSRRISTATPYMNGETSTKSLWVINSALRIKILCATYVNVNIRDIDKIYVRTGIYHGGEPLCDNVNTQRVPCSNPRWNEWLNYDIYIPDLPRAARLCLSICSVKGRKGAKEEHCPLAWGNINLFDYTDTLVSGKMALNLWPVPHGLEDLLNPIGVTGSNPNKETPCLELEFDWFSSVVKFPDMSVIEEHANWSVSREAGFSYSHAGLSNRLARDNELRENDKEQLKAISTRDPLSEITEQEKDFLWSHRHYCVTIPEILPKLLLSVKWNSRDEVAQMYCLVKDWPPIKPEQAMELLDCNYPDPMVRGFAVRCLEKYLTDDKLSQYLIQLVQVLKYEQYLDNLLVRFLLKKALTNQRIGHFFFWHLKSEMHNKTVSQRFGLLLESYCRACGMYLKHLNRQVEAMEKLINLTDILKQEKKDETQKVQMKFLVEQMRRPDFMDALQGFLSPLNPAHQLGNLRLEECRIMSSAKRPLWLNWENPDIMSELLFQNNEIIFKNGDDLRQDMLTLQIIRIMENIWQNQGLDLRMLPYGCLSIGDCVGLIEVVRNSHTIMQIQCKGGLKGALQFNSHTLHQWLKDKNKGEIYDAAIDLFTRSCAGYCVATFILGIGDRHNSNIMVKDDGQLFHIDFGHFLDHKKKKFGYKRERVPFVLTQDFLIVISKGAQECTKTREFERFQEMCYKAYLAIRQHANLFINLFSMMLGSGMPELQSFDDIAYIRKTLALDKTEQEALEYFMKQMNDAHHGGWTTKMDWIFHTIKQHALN

[5] = target: Phosphatidylinositol 4,5-bisphosphate 3-kinase catalytic subunit gamma isoform (Homo sapiens, UniProt P48736); test: Inhibition of PI3K p110gamma (unknown origin) using lipid substrate after 40 mins by kinase-Glo assay
Sequence of Phosphatidylinositol 4,5-bisphosphate 3-kinase catalytic subunit gamma isoform (P48736 whole entry, canonical isoform): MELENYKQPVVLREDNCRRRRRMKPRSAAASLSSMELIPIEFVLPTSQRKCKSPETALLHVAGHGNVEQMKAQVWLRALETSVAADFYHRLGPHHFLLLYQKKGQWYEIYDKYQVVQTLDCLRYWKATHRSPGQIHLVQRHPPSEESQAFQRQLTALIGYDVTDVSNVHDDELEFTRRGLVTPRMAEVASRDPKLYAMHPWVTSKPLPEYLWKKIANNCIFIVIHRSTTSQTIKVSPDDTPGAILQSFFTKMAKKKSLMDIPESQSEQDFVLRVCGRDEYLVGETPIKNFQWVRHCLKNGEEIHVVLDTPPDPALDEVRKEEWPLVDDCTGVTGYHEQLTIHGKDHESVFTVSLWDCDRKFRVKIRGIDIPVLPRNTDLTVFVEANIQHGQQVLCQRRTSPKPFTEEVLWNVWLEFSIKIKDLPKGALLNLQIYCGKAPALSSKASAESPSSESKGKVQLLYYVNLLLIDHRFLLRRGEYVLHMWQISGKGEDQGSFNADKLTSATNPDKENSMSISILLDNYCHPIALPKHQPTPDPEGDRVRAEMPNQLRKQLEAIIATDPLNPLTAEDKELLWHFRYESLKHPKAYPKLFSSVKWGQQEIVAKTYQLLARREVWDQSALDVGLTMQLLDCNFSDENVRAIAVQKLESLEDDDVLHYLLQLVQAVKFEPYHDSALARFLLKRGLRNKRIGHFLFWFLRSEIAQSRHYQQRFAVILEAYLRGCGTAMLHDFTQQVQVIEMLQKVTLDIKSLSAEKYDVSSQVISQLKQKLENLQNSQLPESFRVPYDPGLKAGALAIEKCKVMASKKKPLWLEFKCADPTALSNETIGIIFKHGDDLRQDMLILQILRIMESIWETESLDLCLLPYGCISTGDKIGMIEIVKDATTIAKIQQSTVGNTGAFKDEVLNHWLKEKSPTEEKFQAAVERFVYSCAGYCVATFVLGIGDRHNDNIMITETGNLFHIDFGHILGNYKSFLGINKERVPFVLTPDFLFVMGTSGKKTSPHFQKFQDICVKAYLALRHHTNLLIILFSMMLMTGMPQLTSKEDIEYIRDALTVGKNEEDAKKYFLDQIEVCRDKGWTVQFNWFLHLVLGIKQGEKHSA

Raji = test: cells; assay type: functional, cell-based; settings: Homo sapiens, 72 h
Description: Antiproliferative activity against human Raji cells after 72 hrs by MTT assay

[6] = AUC in Sprague-Dawley rat at 10 mg/kg, po by LC-MS/MS analysis; assay type: ADME, organism-based; settings: in vivo
[7] = Cmax in Sprague-Dawley rat at 10 mg/kg, po by LC-MS/MS analysis; assay type: ADME, organism-based; set-up: dose 10 mg/kg, route oral; settings: in vivo
Homo sapiens [8] = species: Homo sapiens; test: Selectivity ratio of IC50 for PI3K p110gamma (unknown origin) to IC50 for PI3K p110delta (unknown origin)
Rattus norvegicus [9] = test: Half life in Sprague-Dawley rat at 10 mg/kg, po by LC-MS/MS analysis; assay type: ADME, organism-based; settings: in vivo
Rattus norvegicus [10] = test: Apparent volume of distribution in Sprague-Dawley rat at 10 mg/kg, po by LC-MS/MS analysis; assay type: ADME, organism-based; settings: in vivo
Homo sapiens [11] = species: Homo sapiens; test: Selectivity ratio of IC50 for PI3K p110beta (unknown origin) to IC50 for PI3K p110delta (unknown origin)
SU-DHL-6 = test: Antiproliferative activity against human SUDHL6 cells after 72 hrs by CCK8 assay; assay type: functional, cell-based; settings: SU-DHL-6, 72 h
Ramos = test: cells; assay type: functional, cell-based; settings: Homo sapiens, 72 h
Description: Antiproliferative activity against human Ramos cells after 72 hrs by MTT assay

Rattus norvegicus [12] = test: Clearance in Sprague-Dawley rat at 10 mg/kg, po by LC-MS/MS analysis; assay type: ADME, organism-based; settings: in vivo
RPMI-8226 = test: Antiproliferative activity against human RPMI8226 cells after 72 hrs by MTT assay; assay type: functional, cell-based; settings: RPMI-8226, 72 h
Homo sapiens [13] = species: Homo sapiens; test: Selectivity ratio of IC50 for PI3K p110alpha (unknown origin) to IC50 for PI3K p110delta (unknown origin)
[14] = target: Phosphatidylinositol 4,5-bisphosphate 3-kinase catalytic subunit beta isoform (Homo sapiens, UniProt P42338); test: Inhibition of PI3K p110beta (unknown origin) using lipid substrate after 40 mins by kinase-Glo assay
Sequence of Phosphatidylinositol 4,5-bisphosphate 3-kinase catalytic subunit beta isoform (P42338 whole entry, canonical isoform): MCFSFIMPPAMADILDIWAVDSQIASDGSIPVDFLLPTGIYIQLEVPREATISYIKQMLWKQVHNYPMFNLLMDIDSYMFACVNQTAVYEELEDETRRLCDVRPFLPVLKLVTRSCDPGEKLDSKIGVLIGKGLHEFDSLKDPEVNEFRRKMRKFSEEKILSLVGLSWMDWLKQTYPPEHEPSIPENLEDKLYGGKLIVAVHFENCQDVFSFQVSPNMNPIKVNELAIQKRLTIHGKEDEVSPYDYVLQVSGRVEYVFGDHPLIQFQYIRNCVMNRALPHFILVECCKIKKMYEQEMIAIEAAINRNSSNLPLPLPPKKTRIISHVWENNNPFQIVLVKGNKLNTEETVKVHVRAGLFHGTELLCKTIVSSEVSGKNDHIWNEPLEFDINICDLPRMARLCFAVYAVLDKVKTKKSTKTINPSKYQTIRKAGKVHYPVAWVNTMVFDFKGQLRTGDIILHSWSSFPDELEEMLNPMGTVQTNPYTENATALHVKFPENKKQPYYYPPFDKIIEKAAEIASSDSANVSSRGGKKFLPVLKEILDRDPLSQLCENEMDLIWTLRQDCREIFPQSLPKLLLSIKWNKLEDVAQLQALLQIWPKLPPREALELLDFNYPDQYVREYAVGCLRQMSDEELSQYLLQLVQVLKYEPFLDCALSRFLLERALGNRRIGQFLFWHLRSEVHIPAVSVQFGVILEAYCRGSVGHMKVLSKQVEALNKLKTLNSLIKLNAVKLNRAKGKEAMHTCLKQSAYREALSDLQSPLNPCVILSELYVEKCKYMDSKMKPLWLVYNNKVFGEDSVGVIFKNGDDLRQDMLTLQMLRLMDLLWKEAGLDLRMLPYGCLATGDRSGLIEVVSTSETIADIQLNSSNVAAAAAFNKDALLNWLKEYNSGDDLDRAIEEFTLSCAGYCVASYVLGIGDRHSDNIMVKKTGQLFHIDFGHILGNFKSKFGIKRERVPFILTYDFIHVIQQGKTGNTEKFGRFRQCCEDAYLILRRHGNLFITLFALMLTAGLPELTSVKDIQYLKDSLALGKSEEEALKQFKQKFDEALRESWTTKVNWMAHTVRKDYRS

[15] = AUC in Sprague-Dawley rat at 3 mg/kg, po by LC-MS/MS analysis; assay type: ADME, organism-based; settings: in vivo
[16] = Oral bioavailability in Sprague-Dawley rat at 3 mg/kg by LC-MS/MS analysis; assay type: ADME, organism-based; settings: in vivo
[17] = Cmax in Sprague-Dawley rat at 3 mg/kg, po by LC-MS/MS analysis; assay type: ADME, organism-based; set-up: dose 3 mg/kg, route oral; settings: in vivo

Structure (SMILES)	inhibition [1] [%]	IC50 [2] [nM]	other results
COc1ccc(-c2ccc3ncnc(N[C@H]4CCN(C(=O)OC(C)(C)C)C4)c3c2)cn1	91	8.1	–
COc1ccc(-c2ccc3ncnc(N[C@H]4CCN(C(=O)CC(C)(C)C)C4)c3c2)cn1	94	4.6	–
COc1ccc(-c2ccc3ncnc(N[C@H]4CCN(C(=O)C5CCCC5)C4)c3c2)cn1	97	4.4	–
COc1ncc(-c2ccc3ncnc(N[C@H]4CCN(C(=O)OC(C)(C)C)C4)c3c2)cc1[N+](=O)[O-]	51	–	–
COc1ccc(-c2ccc3ncnc(N[C@H]4CCN(C(C)=O)C4)c3c2)cn1	79	–	–
NC(=O)c1cc(-c2ccc3ncnc(-c4cccc(C(=O)NCCN5CCOCC5)c4)c3c2)ccc1Cl	–	–	IC50 [3]: 17 nM
COc1ncc(-c2ccc3ncnc(N[C@H]4CCN(C(=O)C5CC5)C4)c3c2)cc1C#N	97	5.5	–
CC(C)(C)OC(=O)N1CC[C@H](Nc2ncnc3ccc(-c4ccc(OC(F)(F)F)cc4)cc23)C1	2	–	–
COc1ccc(-c2ccc3ncnc(N[C@H]4CCN(C(=O)C(C)(C)C)C4)c3c2)cn1	79	–	–
COc1ccc(-c2ccc3ncnc(N[C@H]4CCN(C(=O)C5CCOCC5)C4)c3c2)cn1	97	3.4	–
COc1ccc(-c2ccc3ncnc(N[C@@H]4CCN(C(=O)OC(C)(C)C)C4)c3c2)cn1	0	–	–
COc1ccc(-c2ccc3ncnc(N[C@H]4CCN(C(=O)c5ccco5)C4)c3c2)cn1	97	5.5	–
COc1ccc(-c2ccc3ncnc(N[C@H]4CCNC4)c3c2)cn1	38	–	–
COc1ccc(-c2ccc3ncnc(N[C@H]4CCN(C(=O)C5CCOCC5)C4)c3c2)cc1C(N)=O	92	7.8	–
COc1ccc(-c2ccc3ncnc(N[C@H]4CCN(S(=O)(=O)C5CC5)C4)c3c2)cn1	83	13.5	–
O=C(CCCCCCC(=O)Nc1ccccc1)NO [VORINOSTAT]	–	–	IC50 (RPMI-8226): 660 nM
COc1ccc(-c2ccc3ncnc(N[C@H]4CCN(C(=O)c5ccccc5)C4)c3c2)cn1	87	3	–
COc1ncc(-c2ccc3ncnc(N[C@H]4CCN(C(=O)C5CCOCC5)C4)c3c2)cc1[N+](=O)[O-]	99	3.1	IC50 [4]: 26.7 nM; IC50 [5]: 199 nM; IC50 (Raji): 1480 nM; IC50 (SU-DHL-6): 5970 nM; IC50 (Ramos): 780 nM; IC50 (RPMI-8226): 2710 nM; IC50 [14]: 585 nM

Further lines, with some results ahead:

inhibition [1] [%]	IC50 [2] [nM]	Structure (SMILES)	other results
74	–	COc1ccc(-c2ccc3ncnc(N[C@H]4CCN(C(=O)OC(C)(C)C)C4)c3c2)cc1C(N)=O	–
0	–	C=CC(=O)N1CC[C@H](Nc2ncnc3ccc(-c4ccc(OC)nc4)cc23)C1	–
46	–	COc1ccc(-c2ccc3ncnc(N[C@@H]4CCN(C(=O)C5CCOCC5)C4)c3c2)cn1	–
84	–	COc1ccc(-c2ccc3ncnc(N[C@H]4CCN(C(=O)C5CC5)C4)c3c2)cc1C(N)=O	–
17	–	CC(C)(C)OC(=O)N1CC[C@H](Nc2ncnc3ccc(-c4ccc(N)nc4)cc23)C1	–
88	18.7	COc1ncc(-c2ccc3ncnc(N[C@H]4CCN(C(=O)OC(C)(C)C)C4)c3c2)cc1C#N	–
44	–	CC(C)(C)OC(=O)N1CC[C@H](Nc2ncnc3ccc(-c4cnc(N)nc4)cc23)C1	–
13	–	O=C(C1CC1)N1CC[C@H](Nc2ncnc3ccc(-c4ccc(OC(F)(F)F)cc4)cc23)C1	–
82	–	COc1cc(C(N)=O)cc(-c2ccc3ncnc(N[C@H]4CCN(C(=O)OC(C)(C)C)C4)c3c2)c1	–
99	2.7	COc1ncc(-c2ccc3ncnc(N[C@H]4CCN(C(=O)C5CCOCC5)C4)c3c2)cc1C#N	IC50 [4]: 25.6 nM; IC50 [5]: 174 nM; IC50 (Raji): > 10000 nM; AUC [6]: 524 ng·h/mL; Cmax [7]: 664 ng/mL; Ratio IC50 (Homo sapiens [8]): 65; t1/2 (Rattus norvegicus [9]): 2.99 h; Vz (Rattus norvegicus [10]): 113 L/kg; Ratio IC50 (Homo sapiens [11]): 100; IC50 (SU-DHL-6): 4550 nM; IC50 (Ramos): 570 nM; CL (Rattus norvegicus [12]): 40 mL/min/kg; IC50 (RPMI-8226): 4340 nM; Ratio IC50 (Homo sapiens [13]): 10; IC50 [14]: 264 nM
97	4.5	COc1ccc(-c2ccc3ncnc(N[C@H]4CCN(C(=O)C5CC5)C4)c3c2)cn1	IC50 [4]: 25.4 nM; IC50 [5]: 224 nM; IC50 (Raji): 2130 nM; IC50 (SU-DHL-6): 500 nM; IC50 (Ramos): 520 nM; IC50 (RPMI-8226): 1460 nM; IC50 [14]: 220 nM
85	2.9	COc1ccc(-c2ccc3ncnc(N[C@H]4CCN(C(=O)C5CCCCC5)C4)c3c2)cn1	–
79	–	COc1ccc(-c2ccc3ncnc(N[C@H]4CCN(C(=O)Cc5ccccc5)C4)c3c2)cn1	–
98	5.2	COc1ccc(-c2ccc3ncnc(N[C@H]4CCN(C(=O)C5CCC5)C4)c3c2)cn1	–
96	–	CC[C@H](Nc1ncnc2[nH]cnc12)c1nc2cccc(F)c2c(=O)n1-c1ccccc1 [IDELALISIB]	IC50 (Raji): 9950 nM; IC50 (SU-DHL-6): 650 nM; IC50 (Ramos): > 10000 nM; AUC [15]: 422 ng·h/mL; IC50 (RPMI-8226): 5490 nM; bioavailability [16]: 39%; Cmax [17]: 129 ng/mL
